From the NIST ThermoML archive (doi:10.1021/je2003622)

Legend:
[1] = wn = mass fraction of the nth substance listed; details: 101 kPa, Liquid
[2] = mn = molality of the nth substance listed, in mol/kg; details: 101 kPa, Liquid

CO [methanol] + O
[1]
Details	mass density, 298.15 K [kg/m3]	mass density, 308.15 K [kg/m3]	mass density, 318.15 K [kg/m3]	mass density, 323.15 K [kg/m3]	viscosity, 298.15 K [mPa·s]	viscosity, 308.15 K [mPa·s]	viscosity, 318.15 K [mPa·s]	viscosity, 323.15 K [mPa·s]
w1 = 0.0806	982.97	979.73	976.04	974.38	1.084	0.8665	0.7017	0.6375
w1 = 0.1647	969.63	966.32	961.62	958.75	1.311	1.022	0.8075	0.73
w1 = 0.2526	956.2	951.6	946.26	943.31	1.471	1.142	0.8957	0.8052
w1 = 0.3446	939.57	933.64	931.4	928	1.448	1.203	0.9309	0.8288

CCCCCCCCCCCCOS(=O)(=O)[O-].[Na+] [sodium dodecyl sulfate] + O
[2]
Details	mass density [kg/m3]
298.15 K, m1 = 0.03036	998.33
298.15 K, m1 = 0.04026	998.74
298.15 K, m1 = 0.04734	999.03
298.15 K, m1 = 0.05935	999.5
298.15 K, m1 = 0.0771	1000.24
298.15 K, m1 = 0.08753	1000.63
298.15 K, m1 = 0.0992	1001.07
298.15 K, m1 = 0.1159	1001.71
308.15 K, m1 = 0.03046	995.13
308.15 K, m1 = 0.0404	995.48
308.15 K, m1 = 0.04749	995.73
308.15 K, m1 = 0.05955	996.13
308.15 K, m1 = 0.07737	996.76
308.15 K, m1 = 0.08785	997.09
308.15 K, m1 = 0.09957	997.46
308.15 K, m1 = 0.1163	997.99
318.15 K, m1 = 0.03059	991.17
318.15 K, m1 = 0.04056	991.47
318.15 K, m1 = 0.04769	991.69
318.15 K, m1 = 0.0598	992.03
318.15 K, m1 = 0.07771	992.57
318.15 K, m1 = 0.08824	992.85
318.15 K, m1 = 0.1	993.17
318.15 K, m1 = 0.1169	993.63
323.15 K, m1 = 0.03066	988.91
323.15 K, m1 = 0.04066	989.19
323.15 K, m1 = 0.0478	989.39
323.15 K, m1 = 0.05995	989.71
323.15 K, m1 = 0.0779	990.21
323.15 K, m1 = 0.08845	990.47
323.15 K, m1 = 0.1003	990.76
323.15 K, m1 = 0.1172	991.18
